{"source": "patent US12077503B2", "about": "“Substituted cyclic amides and their use as herbicides” (FMC CORPORATION, priority 2015, dated 2024)", "format_in_all_cases": "in vivo", "key": {"[1]": {"test_system": "ryegrass, Italian (Italian ryegrass, Lolium multiflorum)", "assay": "Test A preemergence", "in_short": "(§1)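 Ratings of 0 (no effect) to 100 (complete control) come from visual comparison with untreated controls roughly 10 d after treatment. Test chemicals, formulated in a non-phytotoxic solvent mixture with surfactant, were applied either as a preemergence directed soil spray on seeded soil or postemergence to one- to two-leaf plants 2 to 10 cm tall.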"}, "Kochia (Kochia scoparia) [2]": {"test_system": "Kochia (Kochia scoparia)", "assay": "Test A preemergence", "in_short": "as §1"}, "[3]": {"test_system": "barnyardgrass (Echinochloa crus-galli)", "assay": "Test A preemergence", "in_short": "as §1"}, "[4]": {"test_system": "pigweed (Amaranthus retroflexus)", "assay": "Test A preemergence"}, "[5]": {"test_system": "giant foxtail (Setaria faberii)", "assay": "Test A preemergence", "in_short": "as §1"}, "[6]": {"test_system": "ragweed (common ragweed, Ambrosia elatior)", "assay": "Test A preemergence", "in_short": "as §1"}, "[7]": {"test_system": "ducksalad (Heteranthera limosa)", "assay": "Test B flooded paddy test", "settings": "Flood, 0 to 100 scale where 0 is no effect and 100 is complete control, 13 to 15 d", "in_short": "(§2)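 Response scored visually against untreated controls, 0 = no effect and 100 = complete control, 13–15 d after treatment in the greenhouse. Compounds added to paddy water held 3 cm above soil surface. Treatment given at 2-leaf stage.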"}, "[8]": {"test_system": "barnyardgrass (Echinochloa crus-galli)", "assay": "Test B flooded paddy test", "settings": "Flood, 0 to 100 scale where 0 is no effect and 100 is complete control, 13 to 15 d", "in_short": "as §2"}, "[9]": {"test_system": "sedge, umbrella (small-flower umbrella sedge, Cyperus difformis)", "assay": "Test B flooded paddy test", "settings": "Flood, 0 to 100 scale where 0 is no effect and 100 is complete control, 13 to 15 d", "in_short": "as §2"}, "rice (Oryra sativa)": {"test_system": "rice (Oryra sativa)", "assay": "Test B flooded paddy test", "settings": "Flood, 0 to 100 scale where 0 is no effect and 100 is complete control, 13 to 15 d", "in_short": "as §2"}, "[10]": {"test_system": "wheat (Triticum aestivum)", "assay": "Test A postemergence", "in_short": "as §1"}, "[11]": {"test_system": "blackgrass (Alopecurus myosuroides)", "assay": "Test A postemergence", "in_short": "as §1"}, "[12]": {"test_system": "ryegrass, Italian (Italian ryegrass, Lolium multiflorum)", "assay": "Test A postemergence", "in_short": "as §1"}, "[13]": {"test_system": "Galium (catchweed bedstraw, Galium aparine)", "assay": "Test A postemergence", "in_short": "as §1"}, "Kochia (Kochia scoparia) [14]": {"test_system": "Kochia (Kochia scoparia)", "assay": "Test A postemergence", "in_short": "as §1"}, "[15]": {"test_system": "barnyardgrass (Echinochloa crus-galli)", "assay": "Test A postemergence", "in_short": "as §1"}, "[16]": {"test_system": "pigweed (Amaranthus retroflexus)", "assay": "Test A postemergence", "in_short": "as §1"}, "corn (Zea mays)": {"test_system": "corn (Zea mays)", "assay": "Test A postemergence", "in_short": "as §1"}, "[17]": {"test_system": "giant foxtail (Setaria faberii)", "assay": "Test A postemergence", "in_short": "as §1"}, "[18]": {"test_system": "ragweed (common ragweed, Ambrosia elatior)", "assay": "Test A postemergence", "in_short": "as §1"}, "[19]": {"test_system": "nutsedge, yellow (yellow nutsedge, Cyperus esculentus)", "assay": "Test C preemergence", "settings": "for Plant response rating (scale of 0 to 100), Nutsedge, Yellow: 31 g ai/ha, 0 is no effect, 100 is complete control; for Plant response rating, Nutsedge, Yellow: scale 0 to 100, 0 no effect, 100 complete control", "in_short": "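Visual 0 (no effect) to 100 (complete control) ratings versus controls, taken 13–15 d after treatment in the greenhouse; dash means no result. Compounds in a surfactant-containing non-phytotoxic solvent blend were applied preemergence to seeds in loam-sand soil or postemergence to 1- to 4-leaf plants (2–18 cm) in peat-based medium.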"}, "[20]": {"settings": "125 g ai/ha, Preemergence, visual injury after approximately 10 d, 0 to 100 scale where 0 is no effect and 100 is complete control"}, "[21]": {"settings": "500 g ai/ha, preemergence, 0 to 100 scale, 0 = no effect, 100 = complete control"}, "[22]": {"settings": "125 g ai/ha, postemergence, visual rating after approx. 10 d, 0 to 100 scale (0 no effect, 100 complete control)"}, "[23]": {"settings": "Postemergence, 500 g ai/ha, 0 to 100 scale where 0 is no effect and 100 is complete control"}, "[24]": {"settings": "500 g ai/ha, postemergence, visual injury, 0 to 100 scale (0 no effect, 100 complete control), approx. 10 d"}}, "data": [{"smiles": "CN1CC(c2cccc(OC(F)F)c2)C(C(=O)Nc2cccc(F)c2F)C1=O", "note": "(centres unmarked) [Compound 616]", "values": [{"measurement": "Plant response rating, Ryegrass, Italian", "setting": "[1]; [20]", "value": 80}, {"measurement": "Plant response rating, Ryegrass, Italian", "setting": "[1]; [21]", "value": 90}, {"measurement": "Plant response rating, Kochia", "setting": "Kochia (Kochia scoparia) [2]; [20]", "value": 70}, {"measurement": "Plant response rating, Kochia", "setting": "Kochia (Kochia scoparia) [2]; [21]", "value": 80}, {"measurement": "Plant response rating, Barnyardgrass", "setting": "[3]; [20]", "value": 90}, {"measurement": "Plant response rating, Barnyardgrass", "setting": "[3]; [21]", "value": 90}, {"measurement": "Plant response rating, Pigweed", "setting": "[4]; [20]", "value": 80}, {"measurement": "Plant response rating, Pigweed", "setting": "[4]; [21]", "value": 90}, {"measurement": "Plant response rating, Foxtail, Giant", "setting": "[5]; [20]", "value": 90}, {"measurement": "Plant response rating, Foxtail, Giant", "setting": "[5]; [21]", "value": 100}, {"measurement": "Plant response rating, Ragweed", "setting": "[6]; [20]", "value": 80}, {"measurement": "Plant response rating, Ragweed", "setting": "[6]; [21]", "value": 80}, {"measurement": "Plant response rating, Ducksalad", "setting": "[7]; 250 g ai/ha", "value": 100}, {"measurement": "Plant response rating, Barnyardgrass", "setting": "[8]; 250 g ai/ha", "value": 70}, {"measurement": "Plant response rating, Sedge, Umbrella", "setting": "[9]; 250 g ai/ha", "value": 0}, {"measurement": "Plant response rating, Rice", "setting": "rice (Oryra sativa); 250 g ai/ha", "value": 10}, {"measurement": "Plant response rating, Wheat", "setting": "[10]; [22]", "value": 60}, {"measurement": "Plant response rating, Wheat", "setting": "[10]; [23]", "value": 70}, {"measurement": "Plant response rating, Blackgrass", "setting": "[11]; [22]", "value": 50}, {"measurement": "Plant response rating, Blackgrass", "setting": "[11]; [23]", "value": 60}, {"measurement": "Plant response rating, Ryegrass, Italian", "setting": "[12]; [22]", "value": 50}, {"measurement": "Plant response rating, Ryegrass, Italian", "setting": "[12]; [23]", "value": 80}, {"measurement": "Plant response rating, Galium", "setting": "[13]; [22]", "value": 60}, {"measurement": "Plant response rating, Galium", "setting": "[13]; [23]", "value": 70}, {"measurement": "Plant response rating, Kochia", "setting": "Kochia (Kochia scoparia) [14]; [22]", "value": 50}, {"measurement": "Plant response rating, Kochia", "setting": "Kochia (Kochia scoparia) [14]; [23]", "value": 70}, {"measurement": "Plant response rating, Barnyardgrass", "setting": "[15]; [22]", "value": 90}, {"measurement": "Plant response rating, Barnyardgrass", "setting": "[15]; [23]", "value": 90}, {"measurement": "Plant response rating, Pigweed", "setting": "[16]; [22]", "value": 40}, {"measurement": "Plant response rating, Pigweed", "setting": "[16]; [23]", "value": 60}, {"measurement": "Plant response rating, Corn", "setting": "corn (Zea mays); [22]", "value": 70}, {"measurement": "Plant response rating, Corn", "setting": "corn (Zea mays); [23]", "value": 80}, {"measurement": "Plant response rating, Foxtail, Giant", "setting": "[17]; [22]", "value": 90}, {"measurement": "Plant response rating, Foxtail, Giant", "setting": "[17]; [23]", "value": 90}, {"measurement": "Plant response rating, Ragweed", "setting": "[18]; [22]", "value": 0}, {"measurement": "Plant response rating, Ragweed", "setting": "[18]; [23]", "value": 20}, {"measurement": "Plant response rating (scale of 0 to 100), Nutsedge, Yellow", "setting": "[19]", "value": 0}, {"measurement": "Plant response rating, Nutsedge, Yellow", "setting": "[19]; 62 g ai/ha", "value": 0}, {"measurement": "Plant response rating, Nutsedge, Yellow", "setting": "[19]; 125 g ai/ha", "value": 0}, {"measurement": "Plant response rating, Nutsedge, Yellow", "setting": "[19]; 250 g ai/ha", "value": 0}]}, {"smiles": "O=C1NCC(c2ccc3c(c2)OC(F)(F)O3)C1C(=O)Nc1cccc(F)c1F", "note": "(centres unmarked) [Compound 635]", "values": [{"measurement": "Plant response rating, Ryegrass, Italian", "setting": "[1]; [20]", "value": 20}, {"measurement": "Plant response rating, Ryegrass, Italian", "setting": "[1]; [21]", "value": 30}, {"measurement": "Plant response rating, Kochia", "setting": "Kochia (Kochia scoparia) [2]; [20]", "value": 60}, {"measurement": "Plant response rating, Kochia", "setting": "Kochia (Kochia scoparia) [2]; [21]", "value": 60}, {"measurement": "Plant response rating, Barnyardgrass", "setting": "[3]; [20]", "value": 90}, {"measurement": "Plant response rating, Barnyardgrass", "setting": "[3]; [21]", "value": 90}, {"measurement": "Plant response rating, Pigweed", "setting": "[4]; [20]", "value": 60}, {"measurement": "Plant response rating, Pigweed", "setting": "[4]; [21]", "value": 70}, {"measurement": "Plant response rating, Foxtail, Giant", "setting": "[5]; [20]", "value": 90}, {"measurement": "Plant response rating, Foxtail, Giant", "setting": "[5]; [21]", "value": 90}, {"measurement": "Plant response rating, Ragweed", "setting": "[6]; [20]", "value": 40}, {"measurement": "Plant response rating, Ragweed", "setting": "[6]; [21]", "value": 50}, {"measurement": "Plant response rating, Ducksalad", "setting": "[7]; 500 g ai/ha", "value": 100}, {"measurement": "Plant response rating, Barnyardgrass", "setting": "[8]; 500 g ai/ha", "value": 60}, {"measurement": "Plant response rating, Sedge, Umbrella", "setting": "[9]; 500 g ai/ha", "value": 0}, {"measurement": "Plant response rating, Rice", "setting": "rice (Oryra sativa); 500 g ai/ha", "value": 10}, {"measurement": "Plant response rating, Wheat", "setting": "[10]; [22]", "value": 20}, {"measurement": "Plant response rating, Wheat", "setting": "[10]; [24]", "value": 40}, {"measurement": "Plant response rating, Blackgrass", "setting": "[11]; [22]", "value": 40}, {"measurement": "Plant response rating, Blackgrass", "setting": "[11]; [23]", "value": 70}, {"measurement": "Plant response rating, Ryegrass, Italian", "setting": "[12]; [22]", "value": 0}, {"measurement": "Plant response rating, Ryegrass, Italian", "setting": "[12]; [24]", "value": 30}, {"measurement": "Plant response rating, Galium", "setting": "[13]; [22]", "value": 40}, {"measurement": "Plant response rating, Galium", "setting": "[13]; [24]", "value": 60}, {"measurement": "Plant response rating, Kochia", "setting": "Kochia (Kochia scoparia) [14]; [22]", "value": 60}, {"measurement": "Plant response rating, Kochia", "setting": "Kochia (Kochia scoparia) [14]; [24]", "value": 80}, {"measurement": "Plant response rating, Barnyardgrass", "setting": "[15]; [22]", "value": 80}, {"measurement": "Plant response rating, Barnyardgrass", "setting": "[15]; [23]", "value": 90}, {"measurement": "Plant response rating, Pigweed", "setting": "[16]; [22]", "value": 60}, {"measurement": "Plant response rating, Pigweed", "setting": "[16]; [24]", "value": 80}, {"measurement": "Plant response rating, Corn", "setting": "corn (Zea mays); [22]", "value": 40}, {"measurement": "Plant response rating, Corn", "setting": "corn (Zea mays); [23]", "value": 70}, {"measurement": "Plant response rating, Foxtail, Giant", "setting": "[17]; [22]", "value": 90}, {"measurement": "Plant response rating, Foxtail, Giant", "setting": "[17]; [24]", "value": 90}, {"measurement": "Plant response rating, Ragweed", "setting": "[18]; [22]", "value": 0}, {"measurement": "Plant response rating, Ragweed", "setting": "[18]; [24]", "value": 40}, {"measurement": "Plant response rating (scale of 0 to 100), Nutsedge, Yellow", "setting": "[19]", "value": 0}, {"measurement": "Plant response rating, Nutsedge, Yellow", "setting": "[19]; 62 g ai/ha", "value": 0}, {"measurement": "Plant response rating, Nutsedge, Yellow", "setting": "[19]; 125 g ai/ha", "value": 0}, {"measurement": "Plant response rating, Nutsedge, Yellow", "setting": "[19]; 250 g ai/ha", "value": 25}]}]}
